The nature of data set [1]: MTT assay for cell viability. The class given is cell-based, mouse. The following applies: mouse, RAW264.7 macrophage cells; 30 μM, 24 h, RAW264.7 cells. On the procedure: The RAW 264.7 mouse macrophage cell line was obtained from the China Cell Line Bank (Beijing, China). Cells were cultured in complete medium (DMEM supplemented with 10% heat-inactivated FBS, 3 mM glutamine and antibiotics (100 U/mL penicillin and 100 U/mL streptomycin)) at 37 °C in a humidified incubator containing 5% CO2 and 95% air. […]
Cell viability studies induced by synthesised compounds were evaluated by 3-(4,5-dimethylthiazol-2-yl)-2,5-diphenyltetrazolium bromide (MTT) assay. RAW264.7 macrophages were seeded in 96-well plates at a density of 5 × 10^5 cells/mL in complete medium and incubated for 24 h (100 µL/well). Then the cells were treated with different concentrations of synthesised compounds for 24 h. 150 µL MTT (5 g/L in PBS) was added to each well and the cells were further incubated for 4 h. The supernatant was removed and the cells were lysed with 150 µL/well DMSO. The optical density was measured at 570 nm on a microplate reader (Thermo Scientific, MA, USA).
(Formazan colour is commonly taken as a measure of viable cells.)

Data set [2] deals with phosphorylation of p38 in RAW 264.7 cells. The data set can be described thus: Western blot, LPS-induced phosphorylation of p38. It counts as cell-based, mouse. The following applies: 30 µM, p < .01. Here is the method: (§1) RAW 264.7 cells (5 × 10^5 cells/well) plated onto 6-well plates were incubated for 24 h and treated with 7.5, 15.0 or 30.0 µM of compound 6p for 30 min and then stimulated with […] of LPS for 24 h. The cells were collected and washed three times with ice-cold PBS. The cells were treated with a cell lysis buffer [50 mM Tris (pH 7.6), 150 mM NaCl, 5 mM EDTA (pH 8.0), 0.6% NP-40, 1 mM Na3VO4, 20 mM β-glycerophosphate, 1 mM phenylmethylsulfonyl fluoride, 2 mM p-nitrophenyl phosphate, and 1:25 Complete Mini Protease Inhibitor cocktail (Boehringer, Mannheim,Germany)] and kept on ice for 30 min. The cell lysates were centrifuged (12,000 g at 4 °C) for 5 min to obtain a cytosolic fraction. The protein concentration was determined by BCA protein assay kit (Beyotime, Haimen, China). Aliquots of the lysates were separated on 10% sodium dodecyl sulphate (SDS)-polyacrylamide gel electrophoresis (PAGE) and then electro blotted onto a polyvinylidene difluoride (PVDF) membrane. The blots were blocked with 5% (w/v) non-fat dry milk for 2 h at 37 °C, followed by incubation with specific primary antibody at 4 °C overnight. […] Blots were again washed with TTBS and the immune active proteins were detected using ECL plus (Thermo, USA). […] Results are expressed as the relative ratio of the specific band compared with the internal reference.
On the technique in general: A western blot detects proteins with antibodies after separation by electrophoresis.

The test system of data set [3] is IL-6 production in LPS-stimulated RAW264.7 cells. Briefly: Cytokine production assay (ELISA), IL-6. It counts as cell-based, mouse. On the procedure:
RAW264.7 cells were seeded at 3 × 10^5 cells/well in a 48-well microplate and incubated overnight.The cells were pre-treated with the different concentrations of the test compunds (3, 7.5, 10 or 30 µM) for 30 min before the stimulation with LPS (1 µg/mL). According to the protocol of the manufacturer, supernatants were harvested at the 24th hour for the assay of TNF-α or IL-6 with ELISA kits (BD Biosciences, San Diego, CA, USA). Briefly, 100 µL of biotinylated antibody reagent and the culture supernatants were added to anti-mouse TNF-α or IL-6 precoated 96-well plates, and the plates were incubated for 2 h at RT. The plate was washed with a washing buffer and subsequently incubated with 100 µL of the streptavidin-HRP solution for 1 h at RT. The plate was washed, and incubated with 100 µL of TMB substrate solution for 30 min at RT in the dark. The reaction was stopped by adding 50 µL of stop solution, and then the absorbance was measured at 450 nm by a plate reader. A standard curve was produced for each assay plate using serially diluted recombinant IL-6.

The subject of data set [4] is carrageenan-induced paw oedema. The data set can be described thus: Carrageenan-induced paw oedema model. The class given is in vivo, rats. The following applies: 25 mg/kg p.o., n = 4. The text has this: The animal procedures were in strict accordance with the National Institutes of Healthy Guidelines for the Care and Use of Laboratory Animals (NIH Publication No. 85-23, revised 1996) and were approved by the Institutional Animal Care and Utilisation Committee of Yanbian University. Male albino rats weighing 280–300 gwere obtained from Animal Department of Yanbian University . They were kept in the animal house under standard condition of light and temperature with free access to food and water. The animals were randomly divided into five groups (control, D1, 6p, ibuprofen and celecoxib group) The groups with D1, 6p, ibuprofen and celecoxib were administered oral administration (p.o.) 25 mg/kg in a vehicle of 0.5% methylcellulose, respectively. The negative control group was treated with the same vehicle (0.5% methylcellulose). A solution of carrageenan (0.1 ml, 1.0% w/v in 0.9% of normal saline) was injected into the subplanter region of the left hind paw under light ether anaesthesia 1 h after oral administration (p.o.) of the test compound (at a dose level of 25 mg/kg body weight). The paw volume was measured at hourly interval for 5 h (0, 1, 3 and 5 h) and the percent inhibition of oedema was calculated using formula: %Inhibition=(Vt−Vo)control−(Vt−Vo)tested compound /(Vt−Vo)control×100 where, • Vo = volume of oedema at zero time interval. • Vt = volume of oedema at specific time interval.
On the technique in general: The carrageenan paw model is a standard test of acute inflammation.

Data set [5] concerns phosphorylation of ERK in RAW 264.7 cells. The data set can be described thus: Western blot, LPS-induced phosphorylation of ERK. It counts as cell-based, mouse. Here is the method:
as §1

Where “and” joins values, the source holds several entries; their conditions need not be identical. Equal entries are not always repeated.

As usually defined, the viability is a per cent measure of how many cells are alive, often set against a control. Higher therefore signals less harm to the cells. The term melting point denotes the temperature, or range, at which the solid turns liquid.

Take `COc1cc(Cn2c(=O)c3nnc(C(N)=O)n3c3ccccc32)cc(OC)c1OC` [6p, 5-(3,4,5-trimethoxybenzyl)-4-oxo-4,5-dihydro-[1,2, 4]triazolo[4,3-a]quinoxaline-1-carboxamide]: the melting point was in the range of 286 to 288 °C. In data set [1], this molecule had a viability at 24 h, 30 µM of 83.7 ± 1.53%. The “phosphorylation of p38” value in data set [2] was “markedly diminished”. Besides, the “production of IL-6” value in data set [3] (3 µM, p < .001) is recorded as “significantly inhibited”. Also, in data set [3] (LPS 1 µg/mL, 24 h, different concentrations), the “LPS-induced increase in IL-6 levels” value was “inhibited in a concentration-dependent manner”. In addition, the “% of oedema inhibition (% mean ± SD)” value in data set [4] (1 h) was found to be 37.01 ± 8.45%. Besides, the “% of oedema inhibition (% mean ± SD)” value in data set [4] (3 h, 25 mg/kg) is 50.83% and 50.83 ± 3.47%. Besides, in data set [4] (5 h), the “% of oedema inhibition (% mean ± SD)” value is 38.24 ± 6.04%. The “phosphorylation of ERK” value in data set [5] (30 µM, p < .001) was “markedly diminished”. Moreover, in data set [5] (7.5, 15 and 30 µM), the “LPS-induced phosphorylation of ERK, concentration dependence” value is “concentration-dependent manner”.
